The record followed here is ChEMBL document CHEMBL4049405, “Investigation on cellular uptake and pharmacodynamics of DOCK2-inhibitory peptides conjugated with cell-penetrating peptides” (Bioorg Med Chem, 2017).

A short description of series [1]: Cytotoxicity against HEK293T cells assessed as cell viability at 50 uM by CellTiter-Glo assay relative to control. The note with it: human. A general note: In ATP-based viability assays light output follows the ATP content of the culture.
Series [2] in a line: Drug uptake in HEK293T cells expressing luciferase reporter gene at 50 uM measured every 3 mins for 60 mins by luminescence assay relative to 50 uM luciferin. The note with it: human, hek-293t, 1 h. In kind it is ADME, cell-based.
The nature of series [3]: in vitro. The note with it: human, HEK293T cells.
Description: Cytotoxicity against HEK293T cells assessed as cell viability at 1.9 uM by CellTiter-Glo assay relative to control
Series [4] in a line: in vitro. The note with it: human, HEK293T cells. The source holds these as a separate data set.
Description: Cytotoxicity against HEK293T cells assessed as cell viability at 16.7 uM by CellTiter-Glo assay relative to control
Series [5] is described as follows: in vitro. The note with it: human, HEK293T cells. The source holds these as a separate data set.
Description: Cytotoxicity against HEK293T cells assessed as cell viability at 5.6 uM by CellTiter-Glo assay relative to control
Series [6] is described as follows: in vitro. The note with it: human, HEK293T cells. The source holds these as a separate data set.
Description: Cytotoxicity against HEK293T cells assessed as cell viability at 12.5 uM by CellTiter-Glo assay relative to control
Series [7] is described as follows: in vitro. As to conditions: human, HEK293T cells. This is another data set of the same source.
Description: Cytotoxicity against HEK293T cells assessed as cell viability at 6.3 uM by CellTiter-Glo assay relative to control
The nature of series [8]: in vitro. As to conditions: human, HEK293T cells. This is another data set of the same source.
Description: Cytotoxicity against HEK293T cells assessed as cell viability at 25 uM by CellTiter-Glo assay relative to control

Positions of bridges follow the written chain, without caps; N, C: chain ends. Non-standard residues stand in square brackets, D forms with d. Residues, ends and D or L forms follow the SMILES beside them. *: point of attachment. X1 = O=C(OCCCS*)Oc1ccc2nc(C3=N[C@@H](C(=O)O)CS3)sc2c1; X2 = CC(=O)[C@H]1CSC(c2nc3ccc(OC(=O)OCCCS*)cc3s2)=N1; Mpa = O=C(O)CCS

As to `CC(C)C[C@H](NC(=O)CCSSCCCOC(=O)Oc1ccc2nc(C3=N[C@@H](C(=O)O)CS3)sc2c1)C(=O)N[C@@H](CCCCN)C(=O)N[C@@H](CCCNC(=N)N)C(=O)N[C@@H](Cc1c[nH]c2ccccc12)C(=O)N[C@@H](CCCCN)C(=O)N[C@@H](CC(C)C)C(=O)N[C@@H](Cc1ccccc1)C(=O)N[C@@H](CC(N)=O)C(=O)N[C@@H](CCCCN)C(=O)N[C@@H](CCC(N)=O)C(N)=O` ([Mpa](X1)LKRWKLFNKQ-NH2), the viability at 50 µM in series [1] was determined as 94%. For the same compound, in series [2], the “fold change (FC)” value is reported as 34.5. Also, the viability at 1.9 µM in series [3] was 94.2%. The viability at 16.7 µM in series [4] was found to be 88.1%. In addition, the viability at 5.6 µM in series [5] was 93.7%.

On to `CC(C)C[C@H](NC(=O)[C@H](CCCCN)NC(=O)[C@H](Cc1c[nH]c2ccccc12)NC(=O)[C@H](CCCNC(=N)N)NC(=O)[C@H](CCCCN)NC(=O)[C@H](CC(C)C)NC(=O)[C@@H](NC(=O)[C@H](CCCNC(=N)N)NC(=O)[C@@H](NC(=O)[C@H](CCCCN)NC(=O)CCSSCCCOC(=O)Oc1ccc2nc(C3=N[C@@H](C(=O)O)CS3)sc2c1)[C@@H](C)O)C(C)C)C(N)=O` ([Mpa](X1)KTRVLKRWKL-NH2), for which the viability at 50 µM in series [1] is 80.1%. In addition, the “fold change (FC)” value in series [2] is reported as 30.7. Besides, in series [3], the viability at 1.9 µM was found to be 77.7%. Moreover, in series [4], the viability at 16.7 µM came out at 80.5%. Further, the viability at 5.6 µM in series [5] turned out to be 85.3%.

As for `CC(C)C[C@H](NC(=O)[C@H](CCCCN)NC(=O)[C@H](Cc1c[nH]c2ccccc12)NC(=O)[C@H](CCCNC(=N)N)NC(=O)[C@H](CCCCN)NC(=O)[C@H](CC(C)C)NC(=O)[C@@H](NC(=O)[C@H](CCCNC(=N)N)NC(=O)[C@@H](NC(=O)CCSSCCCOC(=O)Oc1ccc2nc(C3=N[C@@H](C(=O)O)CS3)sc2c1)[C@@H](C)O)C(C)C)C(=O)N[C@@H](Cc1ccccc1)C(N)=O` ([Mpa](X1)TRVLKRWKLF-NH2), in series [1], the viability at 50 µM was 88.5%. Further, the “fold change (FC)” value in series [2] is on record as 216.3. In series [3], the viability at 1.9 µM is 94.3%. Also, the viability at 16.7 µM in series [4] stood at 97.3%. In addition, the viability at 5.6 µM in series [5] was determined as 92.4%.

For the compound `CC(C)C[C@H](NC(=O)[C@H](CCCCN)NC(=O)[C@H](Cc1c[nH]c2ccccc12)NC(=O)[C@H](CCCNC(=N)N)NC(=O)[C@H](CCCCN)NC(=O)[C@H](CC(C)C)NC(=O)[C@@H](NC(=O)[C@H](CCCNC(=N)N)NC(=O)CCSSCCCOC(=O)Oc1ccc2nc(C3=N[C@@H](C(=O)O)CS3)sc2c1)C(C)C)C(=O)N[C@@H](Cc1ccccc1)C(=O)N[C@@H](CC(N)=O)C(N)=O` ([Mpa](X1)RVLKRWKLFN-NH2), the viability at 50 µM in series [1] is 86%. For the same compound, the “fold change (FC)” value in series [2] is 198.2. Also, the viability at 1.9 µM in series [3] stood at 93.5%. In addition, the viability at 16.7 µM in series [4] worked out at 92.5%. For the same compound, the viability at 5.6 µM in series [5] turned out to be 94.4%.

For `CC(=O)N[C@@H](CSSCCCOC(=O)Oc1ccc2nc(C3=N[C@@H](C(C)=O)CS3)sc2c1)C(=O)N[C@H]1CSSC[C@@H](C(=O)N[C@@H](CCCNC(=N)N)C(=O)N[C@@H](CCCNC(=N)N)C(=O)N[C@@H](CCCNC(=N)N)C(N)=O)NC(=O)[C@H](Cc2c[nH]c3ccccc23)NC(=O)[C@@H]2CCCN2C(=O)[C@H](Cc2ccc(O)cc2)NC(=O)CNC(=O)[C@H](Cc2cnc[nH]2)NC(=O)[C@H](Cc2ccc(O)cc2)NC(=O)[C@H](CCCCN)NC(=O)[C@H](C)NC(=O)[C@H](C(C)C)NC1=O` (Ac-C(X2)CVAKYHGYPWCRRR-NH2; disulfide 2-12), the viability at 12.5 µM in series [6] stood at 112%. In addition, the viability at 50 µM in series [1] is 126%. In series [2], the “fold change (FC)” value is 22.8. The viability at 6.3 µM in series [7] came to 105%. In addition, the viability at 25 µM in series [8] is 115%.

Take `CC(C)C[C@H](NC(=O)[C@H](CO)NC(=O)CNC(=O)CCSSCCCOC(=O)Oc1ccc2nc(C3=N[C@@H](C(=O)O)CS3)sc2c1)C(=O)N[C@@H](CCCCN)C(=O)N[C@H](C(=O)N[C@@H](CCCNC(=N)N)C(=O)N[C@H](C(=O)N[C@@H](CC(C)C)C(=O)N[C@@H](CCCCN)C(=O)N[C@@H](CCCNC(=N)N)C(N)=O)C(C)C)[C@@H](C)O` ([Mpa](X1)GSLKTRVLKR-NH2): the viability at 50 µM in series [1] worked out at 87%. Further, in series [2], the “fold change (FC)” value came to 11.2. Further, the viability at 1.9 µM in series [3] was 101%. Besides, the viability at 16.7 µM in series [4] worked out at 93.1%. Further, the viability at 5.6 µM in series [5] came out at 100%.

With `CC(C)C[C@H](NC(=O)[C@H](CCCCN)NC(=O)CCSSCCCOC(=O)Oc1ccc2nc(C3=N[C@@H](C(=O)O)CS3)sc2c1)C(=O)N[C@@H](Cc1ccccc1)C(=O)N[C@@H](CC(N)=O)C(=O)N[C@@H](CCCCN)C(=O)N[C@@H](CCC(N)=O)C(=O)N[C@@H](CCC(=O)O)C(=O)N[C@@H](Cc1c[nH]c2ccccc12)C(=O)N[C@H](C(=O)N[C@@H](CC(N)=O)C(N)=O)[C@@H](C)O` ([Mpa](X1)KLFNKQEWTN-NH2), the viability at 50 µM in series [1] was found to be 99.4%. Moreover, the “fold change (FC)” value in series [2] was found to be 9.7. For the same compound, in series [3], the viability at 1.9 µM amounted to 93%. Besides, in series [4], the viability at 16.7 µM amounted to 97.6%. In addition, the viability at 5.6 µM in series [5] came to 98.8%.

For the compound `CC(C)C[C@H](NC(=O)[C@H](CCCCN)NC(=O)[C@H](Cc1c[nH]c2ccccc12)NC(=O)[C@H](CCCNC(=N)N)NC(=O)[C@H](CCCCN)NC(=O)[C@H](CC(C)C)NC(=O)[C@@H](NC(=O)CCSSCCCOC(=O)Oc1ccc2nc(C3=N[C@@H](C(=O)O)CS3)sc2c1)C(C)C)C(=O)N[C@@H](Cc1ccccc1)C(=O)N[C@@H](CC(N)=O)C(=O)N[C@@H](CCCCN)C(N)=O` ([Mpa](X1)VLKRWKLFNK-NH2), in series [1], the viability at 50 µM turned out to be 95.9%. In series [2], the “fold change (FC)” value worked out at 30.3. Further, the viability at 1.9 µM in series [3] was found to be 88.6%. Moreover, the viability at 16.7 µM in series [4] is 99.6%. In series [5], the viability at 5.6 µM was 98.5%.

In the case of `CC(C)C[C@H](NC(=O)[C@H](CCCCN)NC(=O)[C@H](Cc1c[nH]c2ccccc12)NC(=O)CCSSCCCOC(=O)Oc1ccc2nc(C3=N[C@@H](C(=O)O)CS3)sc2c1)C(=O)N[C@@H](Cc1ccccc1)C(=O)N[C@@H](CC(N)=O)C(=O)N[C@@H](CCCCN)C(=O)N[C@@H](CCC(N)=O)C(=O)N[C@@H](CCC(=O)O)C(=O)N[C@@H](Cc1c[nH]c2ccccc12)C(=O)N[C@H](C(N)=O)[C@@H](C)O` ([Mpa](X1)WKLFNKQEWT-NH2), the viability at 50 µM in series [1] stood at 102%. For the same compound, the “fold change (FC)” value in series [2] came to 14.7. Also, the viability at 1.9 µM in series [3] was 100%. For the same compound, the viability at 16.7 µM in series [4] stood at 104%. Also, the viability at 5.6 µM in series [5] is 99.6%.

`CC(C)C[C@H](NC(=O)[C@H](CCCCN)NC(=O)[C@H](Cc1c[nH]c2ccccc12)NC(=O)[C@H](CCCNC(=N)N)NC(=O)CCSSCCCOC(=O)Oc1ccc2nc(C3=N[C@@H](C(=O)O)CS3)sc2c1)C(=O)N[C@@H](Cc1ccccc1)C(=O)N[C@@H](CC(N)=O)C(=O)N[C@@H](CCCCN)C(=O)N[C@@H](CCC(N)=O)C(=O)N[C@@H](CCC(=O)O)C(=O)N[C@@H](Cc1c[nH]c2ccccc12)C(N)=O` ([Mpa](X1)RWKLFNKQEW-NH2): the viability at 50 µM in series [1] came to 102%. For the same compound, in series [2], the “fold change (FC)” value is 18.2. The viability at 1.9 µM in series [3] is 92.3%. Moreover, the viability at 16.7 µM in series [4] came to 92.8%. Further, in series [5], the viability at 5.6 µM was determined as 93.6%.

With `CC(C)C[C@H](NC(=O)[C@H](CCCCN)NC(=O)[C@H](Cc1c[nH]c2ccccc12)NC(=O)[C@H](CCCNC(=N)N)NC(=O)[C@H](CCCCN)NC(=O)CCSSCCCOC(=O)Oc1ccc2nc(C3=N[C@@H](C(=O)O)CS3)sc2c1)C(=O)N[C@@H](Cc1ccccc1)C(=O)N[C@@H](CC(N)=O)C(=O)N[C@@H](CCCCN)C(=O)N[C@@H](CCC(N)=O)C(=O)N[C@@H](CCC(=O)O)C(N)=O` ([Mpa](X1)KRWKLFNKQE-NH2), the viability at 50 µM in series [1] is 93.8%. The “fold change (FC)” value in series [2] came out at 13.6. Also, the viability at 1.9 µM in series [3] is 95.8%. Also, the viability at 16.7 µM in series [4] was 93.7%. For the same compound, in series [5], the viability at 5.6 µM turned out to be 106%.

Take `CC(C)C[C@H](NC(=O)[C@H](CO)NC(=O)CCSSCCCOC(=O)Oc1ccc2nc(C3=N[C@@H](C(=O)O)CS3)sc2c1)C(=O)N[C@@H](CCCCN)C(=O)N[C@H](C(=O)N[C@@H](CCCNC(=N)N)C(=O)N[C@H](C(=O)N[C@@H](CC(C)C)C(=O)N[C@@H](CCCCN)C(=O)N[C@@H](CCCNC(=N)N)C(=O)N[C@@H](Cc1c[nH]c2ccccc12)C(N)=O)C(C)C)[C@@H](C)O` ([Mpa](X1)SLKTRVLKRW-NH2): the viability at 50 µM in series [1] worked out at 83.8%. In series [2], the “fold change (FC)” value came out at 16.7. Further, in series [3], the viability at 1.9 µM amounted to 84%. Also, the viability at 16.7 µM in series [4] stood at 84.3%. In series [5], the viability at 5.6 µM was 89.6%.

`CC(C)C[C@H](NC(=O)CCSSCCCOC(=O)Oc1ccc2nc(C3=N[C@@H](C(=O)O)CS3)sc2c1)C(=O)N[C@@H](CCCCN)C(=O)N[C@H](C(=O)N[C@@H](CCCNC(=N)N)C(=O)N[C@H](C(=O)N[C@@H](CC(C)C)C(=O)N[C@@H](CCCCN)C(=O)N[C@@H](CCCNC(=N)N)C(=O)N[C@@H](Cc1c[nH]c2ccccc12)C(=O)N[C@@H](CCCCN)C(N)=O)C(C)C)[C@@H](C)O` ([Mpa](X1)LKTRVLKRWK-NH2): the viability at 50 µM in series [1] amounted to 87.8%. Moreover, the “fold change (FC)” value in series [2] is given as 30.1. The viability at 1.9 µM in series [3] was determined as 88.5%. In addition, the viability at 16.7 µM in series [4] was found to be 79.1%. Moreover, the viability at 5.6 µM in series [5] is 80%.

For orientation: viability means a read-out of living cells in per cent, often relative to untreated cells.
